Blank lines part the entries; values can stand above or below the molecule they belong to. The source made the active and inactive calls. The rule behind the calls is not given here.
What was measured:
[1] = tested on: Bel-7402; experiment: Antiproliferative activity against ADR-resistant human Bel-7402 cells assessed as reduction in cell viability incubated for 72 hrs by MTT assay; assay type: functional, cell-based; conditions: bel-7402
[2] = tested on: Bel-7402; experiment: Antiproliferative activity against human Bel-7402 cells assessed as reduction in cell viability incubated for 72 hrs by MTT assay; assay type: functional, cell-based; conditions: bel-7402
[3] = tested on: K562/VCR; experiment: Antiproliferative activity against VCR resistant human K562/VCR cells assessed as reduction in cell viability incubated for 72 hrs by MTT assay; assay type: functional, cell-based; conditions: k562/vcr
[4] = tested on: K562
Description: Antiproliferative activity against human K562 cells assessed as reduction in cell viability incubated for 72 hrs by MTT assay

[5] = tested on: H22; experiment: Antitumor activity against […] xenografted in ICR mouse assessed as reduction in tumor weight at 6 mg/kg, iv dosed every other day for 21 days; assay type: functional; conditions: 504 h, time 21 day
[6] = Toxicity in ICR mouse xenografted with […] cells assessed as effect on lungs morphological changes at 20 mg/kg/day, iv for 21 days by H and E staining based assay; assay type: organism-based; conditions: in vivo, 504 h, time 21 day
[7] = Acute toxicity in ICR mouse assessed as animal survival at 409.6 mg/kg, iv measured for 14 days; assay type: organism-based; conditions: in vivo, time 14 day
[8] = Toxicity in ICR mouse xenografted with […] cells assessed as effect on body weight at 20 mg/kg/day, iv for 21 days; assay type: organism-based; conditions: in vivo, 504 h, time 21 day
[9] = tested on: H22; experiment: Antitumor activity against […] xenografted in ICR mouse assessed as reduction of tumor weight at 20 mg/kg/day, iv for 21 days; assay type: functional; conditions: 504 h, time 21 day
[10] = Toxicity in ICR mouse xenografted with […] cells assessed as effect on kidney morphological changes at 20 mg/kg/day, iv for 21 days by H and E staining based assay; assay type: organism-based; conditions: in vivo, 504 h, time 21 day
[11] = Acute toxicity in ICR mouse assessed as animal survival at 640 mg/kg, iv measured for 14 days; assay type: organism-based; conditions: in vivo, time 14 day
[12] = Acute toxicity in ICR mouse assessed as animal survival at 512 mg/kg, iv measured for 14 days; assay type: organism-based; conditions: in vivo, time 14 day
[13] = Aqueous solubility of the compound in phosphate buffer at pH 7.4 by HPLC-UV analysis; assay type: physicochemical
[14] = tested on: H22; experiment: Antitumor activity against […] xenografted in ICR mouse assessed as reduction in tumor growth at 20 mg/kg/day, iv for 21 days; assay type: functional, organism-based; conditions: time 21.0 day
[15] = Inhibition of pig brain tubulin polymerisation incubated for 30 mins and measured every 2 mins for 60 mins by spectrophotometric method; assay type: tissue-based, Sus scrofa
[16] = Acute toxicity in ICR mouse assessed as animal survival at 800 mg/kg, iv measured for 14 days; assay type: organism-based; conditions: in vivo, time 14 day
[17] = Aqueous solubility of the compound in aqueous HCl at pH 2 by HPLC-UV analysis; assay type: physicochemical
[18] = Toxicity in ICR mouse xenografted with […] cells assessed as effect on heart morphological changes at 20 mg/kg/day, iv for 21 days by H and E staining based assay; assay type: organism-based; conditions: in vivo, 504 h, time 21 day
[19] = Acute toxicity in iv dosed ICR mouse; assay type: organism-based; conditions: in vivo
[20] = Toxicity in ICR mouse xenografted with […] cells assessed as effect on spleen morphological changes at 20 mg/kg/day, iv for 21 days by H and E staining based assay; assay type: organism-based; conditions: in vivo, 504 h, time 21 day
[21] = Acute toxicity in ICR mouse assessed as animal survival at 327.7 mg/kg, iv measured for 14 days; assay type: organism-based; conditions: in vivo, time 14 day
[22] = Toxicity in ICR mouse xenografted with […] cells assessed as effect on liver morphological changes at 20 mg/kg/day, iv for 21 days by H and E staining based assay; assay type: organism-based; conditions: in vivo, 504 h, time 21 day

- IC50 [1]: Not Active
- IC50 [2]: Not Active
- IC50 [3]: Not Active
- IC50 [4]: Not Active
Structure (SMILES): CC(=O)O[C@H]1C(=O)[C@@]2(C)[C@H]([C@H](OC(=O)c3ccccc3)[C@]3(O)C[C@H](OC(=O)[C@H](O)[C@@H](NC(=O)c4ccccc4)c4ccccc4)C(C)=C1C3(C)C)[C@]1(OC(C)=O)CO[C@@H]1C[C@@H]2O [PACLITAXEL]
- inhibition in vivo at 6 mg/kg [5]: 72.7%

Structure (SMILES): COc1ccc(CNC(=O)c2cc(F)ccc2N2CCOCC2)cc1OP(=O)([O-])[O-].[Na+].[Na+]
- Activity [6]: Non-Toxic
- survival at 336 h [7]: 80%
- Activity [8]: Non-Toxic
- inhibition in vivo at 20 mg/kg/day [9]: 71.4%
- Activity [10]: Non-Toxic
- survival at 336 h [11]: 50%
- survival at 336 h [12]: 70%
- solubility [13]: > 1000 µg/mL
- Activity [14]: Active
- IC50 [15]: 6.18 µM
- survival at 336 h [16]: 20%
- solubility [17]: > 1000 µg/mL
- Activity [18]: Non-Toxic
- LD50 [19]: 600 mg/kg
- Activity [20]: Non-Toxic
- survival at 336 h [21]: 90%
- Activity [22]: Non-Toxic
